What was measured:
Assay in all cases: Challenge test with moulds in MOS / MAS; as to Week 1 (Log cfu/g): key: VG: growth; NVG: no growth; as to Week 2 (Log cfu/g): key: VG: growth; NVG: no growth; as to Week 3 (Log cfu/g): key: VG: growth; NVG: no growth; as to Week 4 (Log cfu/g): key: VG: growth; NVG: no growth
Type in all cases: cell-based
Details in all cases: for Week 0 (Log cfu/g) / Week 1 (Log cfu/g) / Week 2 (Log cfu/g) / Week 3 (Log cfu/g) / Week 4 (Log cfu/g): 0.10%; for mould growth: KS 0.10%
[1] = test system: Aspergillus niger (mould); as to Week 1 (Log cfu/g): key: VG: growth; NVG: no growth; as to Week 2 (Log cfu/g): key: VG: growth; NVG: no growth; as to Week 3 (Log cfu/g): key: VG: growth; NVG: no growth; as to Week 4 (Log cfu/g): key: VG: growth; NVG: no growth
Method: (§1) Target microorganisms used for the challenge tests (CT) were Zygosaccharomyces bailii (yeast), Aspergillus niger (mould), Penicillium nalgiovense (mould) and Eurotium amstelodami (mould).
(§2) Stock culture of the mould (mould spores suspended in Tryptone Salt 0.1% diluent) was revived on RBA plates by doing a 3-point inoculation. The inoculated RBA plates were incubated at 30° C. for 36 hours or until the colonies sporulated. The spores were then aseptically sub-cultured onto PDA plates for mass harvesting of the spores. The inoculated PDA plates were then incubated for 30° C. for 36 hours or until the colonies sporulated. Then, the spores were aseptically harvested with a sterile cotton swabs and suspended in sterile Tryptone Salt 0.1% diluent. The suspensions were analyzed for mould spore counts on DG18 plates as well as for microbial contamination on PCA with Cycloheximide by spread plating 0.1-0.5 ml of suspension onto the agar plates respectively. Before the challenge test is initiated, the suspension inoculated with the mould spores was diluted aseptically with sterile Tryptone Salt 0.1% to the desired level such that the inoculation level in the product would be 2-3 log of colony-forming-units (cfu) of moulds per gram of product.
(§3) Challenge Test with moulds was according to the following steps: 1) Add 100 g of MOS into a 250 ml sterile Schott bottle with screw-cap cover; 2) Add 0.1 to 2 ml of mould (A. niger/P. nalgiovence/E. amstelodami) inoculum to meet the target inoculum of 10^2-10^3 cfu/g of MOS into the 100 g MOS and shake to mix well; 3) Pour 35 g of the inoculated MOS into a petri dish. Perform this in duplicate; 4) Pipette 1 g of inoculated MOS from the Schott bottle into 9 ml sterile Tryptone Salt 0.1% diluents and vortex. Perform this in duplicate; 5) Plate 0.1-0.5 ml of inoculated Tryptone Salt 0.1% onto DG18 plates at appropriate dilutions by Spread Plate Method. Incubate the agar plates at 25° C. for 5 days to enumerate the initial mould count; 6) Incubate the inoculated MOS in petri dishes at 30° C. for a week. Monitor for mould growth by visual observation after one week. Perform this mould growth monitoring for a period of 4 weeks; 7) The control was prepared by repeating steps 3 to 6 without using any inoculum. The control was plated onto PCA with Cycloheximide plates.
(§4) The method for producing MAS was the same as for the MOS production in experiment 4. The preparation of the microorganism cultures as well as the challenge tests were identical to the ones described in experiment 4 as well.

[2] = test system: Eurotium amstelodami (mould); as to Week 1 (Log cfu/g): key: VG: growth; NVG: no growth; as to Week 2 (Log cfu/g): key: VG: growth; NVG: no growth; as to Week 3 (Log cfu/g): key: VG: growth; NVG: no growth; as to Week 4 (Log cfu/g): key: VG: growth; NVG: no growth
Method: as §1, §2, §3, §4

[3] = test system: Penicillium nalgiovense (mould); as to Week 1 (Log cfu/g): key: VG: growth; NVG: no growth; as to Week 2 (Log cfu/g): key: VG: growth; NVG: no growth; as to Week 3 (Log cfu/g): key: VG: growth; NVG: no growth; as to Week 4 (Log cfu/g): key: VG: growth; NVG: no growth
Method: as §1, §2, §3, §4

[4] = MAGGI Abalone Sauce, age 0 month
[5] = MAGGI Abalone Sauce, age 1 month
[6] = MAGGI Abalone Sauce, age 3 month
[7] = MAGGI Abalone Sauce, age 6 month
[8] = MAGGI Abalone Sauce, age 10 month
[9] = MAGGI Abalone Sauce, age 12 month
[10] = MAGGI Abalone Sauce, up to 12 months, clove leaf oil 0.06 wt % and 0.15 wt %
[11] = MAGGI Oyster Sauce, garlic EO 0.06 wt % and 0.12 wt %
[12] = MAGGI Oyster Sauce, age 0 month

`C/C=C/C=C/C(=O)[O-].[K+]` [KS, potassium sorbate] was tested, and the “Week 0 (Log cfu/g)” value [1, 4] was 1.9 Log cfu/g, the “Week 1 (Log cfu/g)” value [1, 4] was “NVG” and the “Week 2 (Log cfu/g)” value [1, 4] was “NVG”. For the same compound, the “Week 3 (Log cfu/g)” value [1, 4] was “NVG”, the “Week 4 (Log cfu/g)” value [1, 4] was “NVG” and the “Week 0 (Log cfu/g)” value [1, 5] was 1.15 Log cfu/g. The “Week 1 (Log cfu/g)” value [1, 5] was “NVG”, the “Week 2 (Log cfu/g)” value [1, 5] was “NVG” and the “Week 3 (Log cfu/g)” value [1, 5] was “NVG”. The “Week 4 (Log cfu/g)” value [1, 5] was “NVG”, the “Week 0 (Log cfu/g)” value [1, 6] was 2.19 Log cfu/g and the “Week 1 (Log cfu/g)” value [1, 6] was “NVG”. For the same compound, the “Week 2 (Log cfu/g)” value [1, 6] was “NVG”, the “Week 3 (Log cfu/g)” value [1, 6] was “NVG” and the “Week 4 (Log cfu/g)” value [1, 6] was “NVG”. The “Week 0 (Log cfu/g)” value [1, 7] was 2.16 Log cfu/g, the “Week 1 (Log cfu/g)” value [1, 7] was “NVG” and the “Week 2 (Log cfu/g)” value [1, 7] was “NVG”. For the same compound, the “Week 3 (Log cfu/g)” value [1, 7] was “NVG”, the “Week 4 (Log cfu/g)” value [1, 7] was “NVG” and the “Week 0 (Log cfu/g)” value [1, 8] was 3.67 Log cfu/g. For the same compound, the “Week 1 (Log cfu/g)” value [1, 8] was “NVG”, the “Week 2 (Log cfu/g)” value [1, 8] was “NVG” and the “Week 3 (Log cfu/g)” value [1, 8] was “NVG”. For the same compound, the “Week 4 (Log cfu/g)” value [1, 8] was “NVG”, the “Week 0 (Log cfu/g)” value [1, 9] was 2.96 Log cfu/g and the “Week 1 (Log cfu/g)” value [1, 9] was “NVG”. The “Week 2 (Log cfu/g)” value [1, 9] was “NVG”, the “Week 3 (Log cfu/g)” value [1, 9] was “NVG” and the “Week 4 (Log cfu/g)” value [1, 9] was “NVG”. For the same compound, the mould growth [1, 10] was “not detected”, the mould growth [1, 11] was “not detected” and the “Week 0 (Log cfu/g)” value [1, 12] was 3.114 Log cfu/g. The “Week 1 (Log cfu/g)” value [1, 12] was “NVG”, the “Week 2 (Log cfu/g)” value [1, 12] was “NVG” and the “Week 3 (Log cfu/g)” value [1, 12] was “NVG”. For the same compound, the “Week 4 (Log cfu/g)” value [1, 12] was “NVG”, the “Week 0 (Log cfu/g)” value [2, 4] was 2.93 Log cfu/g and the “Week 1 (Log cfu/g)” value [2, 4] was “NVG”. For the same compound, the “Week 2 (Log cfu/g)” value [2, 4] was “NVG”, the “Week 3 (Log cfu/g)” value [2, 4] was “NVG” and the “Week 4 (Log cfu/g)” value [2, 4] was “NVG”. For the same compound, the “Week 0 (Log cfu/g)” value [2, 5] was 1.54 Log cfu/g, the “Week 1 (Log cfu/g)” value [2, 5] was “NVG” and the “Week 2 (Log cfu/g)” value [2, 5] was “NVG”. For the same compound, the “Week 3 (Log cfu/g)” value [2, 5] was “NVG”, the “Week 4 (Log cfu/g)” value [2, 5] was “NVG” and the “Week 0 (Log cfu/g)” value [2, 6] was 2.69 Log cfu/g. For the same compound, the “Week 1 (Log cfu/g)” value [2, 6] was “NVG”, the “Week 2 (Log cfu/g)” value [2, 6] was “NVG” and the “Week 3 (Log cfu/g)” value [2, 6] was “NVG”. For the same compound, the “Week 4 (Log cfu/g)” value [2, 6] was “NVG”, the “Week 0 (Log cfu/g)” value [2, 7] was 2.67 Log cfu/g and the “Week 1 (Log cfu/g)” value [2, 7] was “NVG”. The “Week 2 (Log cfu/g)” value [2, 7] was “NVG”, the “Week 3 (Log cfu/g)” value [2, 7] was “NVG” and the “Week 4 (Log cfu/g)” value [2, 7] was “NVG”. The “Week 0 (Log cfu/g)” value [2, 8] was 3.80 Log cfu/g, the “Week 1 (Log cfu/g)” value [2, 8] was “NVG” and the “Week 2 (Log cfu/g)” value [2, 8] was “NVG”. For the same compound, the “Week 3 (Log cfu/g)” value [2, 8] was “NVG”, the “Week 4 (Log cfu/g)” value [2, 8] was “NVG” and the “Week 0 (Log cfu/g)” value [2, 9] was 2.38 Log cfu/g. The “Week 1 (Log cfu/g)” value [2, 9] was “NVG”, the “Week 2 (Log cfu/g)” value [2, 9] was “NVG” and the “Week 3 (Log cfu/g)” value [2, 9] was “NVG”. The “Week 4 (Log cfu/g)” value [2, 9] was “NVG”, the mould growth [2, 10] was “not detected” and the mould growth [2, 11] was “not detected”. The “Week 0 (Log cfu/g)” value [2, 12] was 2.204 Log cfu/g, the “Week 1 (Log cfu/g)” value [2, 12] was “NVG” and the “Week 2 (Log cfu/g)” value [2, 12] was “NVG”. For the same compound, the “Week 3 (Log cfu/g)” value [2, 12] was “NVG”, the “Week 4 (Log cfu/g)” value [2, 12] was “NVG” and the “Week 0 (Log cfu/g)” value [3, 4] was 1.54 Log cfu/g. The “Week 1 (Log cfu/g)” value [3, 4] was “NVG”, the “Week 2 (Log cfu/g)” value [3, 4] was “NVG” and the “Week 3 (Log cfu/g)” value [3, 4] was “NVG”. The “Week 4 (Log cfu/g)” value [3, 4] was “NVG”, the “Week 0 (Log cfu/g)” value [3, 5] was 1.73 Log cfu/g and the “Week 1 (Log cfu/g)” value [3, 5] was “NVG”. The “Week 2 (Log cfu/g)” value [3, 5] was “NVG”, the “Week 3 (Log cfu/g)” value [3, 5] was “NVG” and the “Week 4 (Log cfu/g)” value [3, 5] was “NVG”. For the same compound, the “Week 0 (Log cfu/g)” value [3, 6] was 2.71 Log cfu/g, the “Week 1 (Log cfu/g)” value [3, 6] was “NVG” and the “Week 2 (Log cfu/g)” value [3, 6] was “NVG”. For the same compound, the “Week 3 (Log cfu/g)” value [3, 6] was “NVG”, the “Week 4 (Log cfu/g)” value [3, 6] was “NVG” and the “Week 0 (Log cfu/g)” value [3, 7] was 2.03 Log cfu/g. The “Week 1 (Log cfu/g)” value [3, 7] was “NVG”, the “Week 2 (Log cfu/g)” value [3, 7] was “NVG” and the “Week 3 (Log cfu/g)” value [3, 7] was “NVG”. The “Week 4 (Log cfu/g)” value [3, 7] was “NVG”, the “Week 0 (Log cfu/g)” value [3, 8] was 3.86 Log cfu/g and the “Week 1 (Log cfu/g)” value [3, 8] was “NVG”. For the same compound, the “Week 2 (Log cfu/g)” value [3, 8] was “NVG”, the “Week 3 (Log cfu/g)” value [3, 8] was “NVG” and the “Week 4 (Log cfu/g)” value [3, 8] was “NVG”. The “Week 0 (Log cfu/g)” value [3, 9] was 3.26 Log cfu/g, the “Week 1 (Log cfu/g)” value [3, 9] was “NVG” and the “Week 2 (Log cfu/g)” value [3, 9] was “NVG”. The “Week 3 (Log cfu/g)” value [3, 9] was “NVG”, the “Week 4 (Log cfu/g)” value [3, 9] was “NVG” and the mould growth [3, 10] was “not detected”. For the same compound, the mould growth [3, 11] was “not detected”, the “Week 0 (Log cfu/g)” value [3, 12] was 4.079 Log cfu/g and the “Week 1 (Log cfu/g)” value [3, 12] was “NVG”. For the same compound, the “Week 2 (Log cfu/g)” value [3, 12] was “NVG”, the “Week 3 (Log cfu/g)” value [3, 12] was “NVG” and the “Week 4 (Log cfu/g)” value [3, 12] was “NVG”.

Source: patent US8859018B2, “Delivery carrier for antimicrobial essential oils” (Nestec S.A., priority 2010, dated 2014)
